Where “and” joins values, the source holds several entries; their conditions need not be identical. Equal values may be shown once.
Legend:
[1] = system: dehydrogenase which catalyses chiroinositol (Bacillus sp. No. 3 origin); experiment: Initial rate of enzyme reaction with various coenzymes; assay type: biochemical; conditions: thio-NAD forward reaction, NADH reverse reaction
[2] = system: dehydrogenase which catalyses chiroinositol (Bacillus sp. No. 3 origin); experiment: as above; assay type: biochemical; conditions: 10 mM D-chiroinositol, 1 mM coenzyme; for Initial rate of enzyme reaction: 37° C., at optimum pH; for Optimum pH for the coenzyme: 100 mM Gly-NaOH buffer
Method: 100 mM Gly-NaOH buffer approx. pH 10 (at optimum pH)
10 mM D-chiroinositol (Wako Pure Chemicals Inc., Japan)
1 mM Coenzyme (NAD(P), thio-NAD(P); Oriental Yeast
Optimum pH are pH 11.0 for NAD, deamino NAD and thio-NAD, pH 10.5 for acetyl NAD, and pH 10.0 for aldehyde NAD and NADP.
The above reaction solution 1 ml in quartz cell is set in spectrophotometer which is controlled at 37° C. After over 5 minutes incubation, enzyme solution 140 U/ml (NAD and deamino NAD; 14 U/ml) 20 μl is added and stirred. Absorption changes per minute in specific wavelength for each reduced coenzyme is measured to obtain initial reaction rate. (For NAD and deamino NAD, measured value is increased number by ten for adjusting the amount of enzyme.)

[3] = system: crude enzyme which catalyses chiroinositol, A. r. 1215 origin; experiment: Relative activities using various coenzymes (Table 2); assay type: biochemical, Agrobacterium rhizogenes 1215; conditions: activity using NAD is set as 100%
Excerpt: (§1) The same as in the enzyme originated from Bacillus sp. No. 3.
(§2) The same as in the enzyme originated from Bacillus sp. No. 3. Relative activities using various coenzymes are shown in Table 2 (activity using NAD is set as 100%).

[4] = system: crude enzyme which catalyses chiroinositol, S. r. 301 origin; experiment: as above; assay type: biochemical, Streptomyces roseogriseus 301; conditions: activity using NAD is set as 100%
Excerpt: as §1, §2

[5] = system: dehydrogenase which catalyses chiroinositol (Bacillus sp. No. 3 origin); experiment: Substrate specificity (Table 1); assay type: biochemical; conditions: equal concentration of substrates; glycine-NaOH pH 9.8, thio-NAD/NADH cycling
Method: Substrate specificity is assayed by using following reaction solution at the equal concentration of substrates.
200 mM glycine-NaOH buffer (pH 9.8)
0.03 mM NADH (Oriental Yeast Corp., Japan)
100 U/ml dehydrogenase which catalyses chiroinosiol
2 Mm thio-NAD (Oriental Yeast Corp., Japan)
D-chiroinositol, galactose, fructose, mannitol, mannose; Japan, Wako Pure Chemicals Inc., myo-, epi-, scyllo-inositol U.S.A. SIGMA Corp.

[6] = system: dehydrogenase which catalyses chiroinositol (Bacillus sp. No. 3 origin); experiment: Km value; assay type: biochemical
Method: 100 mM glycine-NaOH buffer (pH 11.0)
1 mM NAD (Oriental Yeast Corp., Japan)
10 mM D-chiroinosiol (Wako Pure Chemicals Inc., Japan)
The above reaction solution 1 ml in quartz cell is set in spectrophotometer which is (controlled at 37° C. After over 5 minutes incubation, aliquot diluted enzyme solution 20 μl is added and stirred. Absorption changes per minute at A340 are measured to obtain initial reaction rate and to calculate relative activity.
Km values are measured at various concentrations using 10 mM
D-chiroinositol and mM NAD.
Km for thio-NAD is measured by replacing NAD to thio-NAD.

[7] = system: crude enzyme which catalyses chiroinositol, A. r. 1215 origin; experiment: Substrate specificity (Table 3); assay type: biochemical, Agrobacterium rhizogenes 1215; conditions: coenzyme replaced by thio-NADP
Excerpt: (§3) In A. r. 1215 origin, the same assay method used in Bacillus sp. No. 3 is applied by replacing coenzyme to thio-NADP. In S. r. 301 origin, the reaction solution used for enzyme assay is used by replacing D-chiroinositol for various concentrations of substrates with adding constant concentration of enzyme solution to assay relative activities.

[8] = system: crude enzyme which catalyses chiroinositol, S. r. 301 origin; experiment: Substrate specificity (Table 3); assay type: biochemical, Streptomyces roseogriseus 301; parameters: concentration or dose not given beside the values; conditions: enzyme assay reaction solution, D-chiroinositol replaced by substrates
Excerpt: as §3

[9] = system: crude enzyme which catalyses chiroinositol, A. r. 1215 origin; experiment: Km value for D-chiroinositol; assay type: biochemical, Agrobacterium rhizogenes 1215
Method: (§4) Km value for D-chiroinositol is shown. Measurement is performed by changing substrate concentration in the above assay method.

[10] = system: crude enzyme which catalyses chiroinositol, S. r. 301 origin; experiment: Km value for D-chiroinositol; assay type: biochemical, Streptomyces roseogriseus 301
Method: as §4

[11] = NAD and deamino NAD values increased by ten for enzyme amount

Row | Compound | Optimum pH for the coenzyme [2] | Relative activity, A.r.1215 origin [3] | Relative activity, S.r.301 origin [4] | Relative activity [5] | Relative activity, A.r.1215 origin [7] | Relative activity, S.r.301 origin [8] | other results
1 | NC(=O)C1=CN([C@@H]2O[C@H](COP(=O)(O)OP(=O)(O)OC[C@H]3O[C@@H](n4cnc5c(N)ncnc54)[C@H](O)[C@@H]3O)[C@@H](O)[C@H]2O)C=CC1 [NADH] |  |  |  |  |  |  | Optimum pH of reaction in the cycling reaction [1]: ~10.0 pH
2 | Nc1ncnc2c1ncn2[C@@H]1O[C@H](COP(=O)(O)OP(=O)([O-])OC[C@H]2O[C@@H]([n+]3cccc(C=O)c3)[C@H](O)[C@@H]2O)[C@@H](O)[C@H]1O [aldehyde NAD, pyridine aldehyde adenine dinucleotide] | 10.0 pH | 15% | 20% |  |  |  | Initial rate of enzyme reaction [2]: 140 mAbs/min.
3 | NC(=O)c1ccc[n+]([C@@H]2O[C@H](COP(=O)([O-])OP(=O)(O)OC[C@H]3O[C@@H](n4cnc5c(N)ncnc54)[C@H](OP(=O)(O)O)[C@@H]3O)[C@@H](O)[C@H]2O)c1 [NADP] | 10.0 pH | 1855% | 0% |  |  |  | Initial rate of enzyme reaction [2]: 80 mAbs/min.
4 | CC(=O)c1ccc[n+]([C@@H]2O[C@H](COP(=O)([O-])OP(=O)(O)OC[C@H]3O[C@@H](n4cnc5c(N)ncnc54)[C@H](O)[C@@H]3O)[C@@H](O)[C@H]2O)c1 [acetyl NAD, acetylpyridine adenine dinucleotide] | 10.5 pH | 26% | 195% |  |  |  | Initial rate of enzyme reaction [2]: 260 mAbs/min.
5 | galactose |  |  |  | 0% |  |  | 
6 | NC(=S)c1ccc[n+]([C@@H]2O[C@H](COP(=O)([O-])OP(=O)(O)OC[C@H]3O[C@@H](n4cnc5c(N)ncnc54)[C@H](O)[C@@H]3O)[C@@H](O)[C@H]2O)c1 [thio-NAD, thio-nicotinamide adenine dinucleotide] | 11.0 pH | 0% | 6% |  |  |  | Initial rate of enzyme reaction [2, 11]: 2.5 Abs/min.; Km ([6]; NAD replaced by thio-NAD): 0.9 mM and 0.87 mM; Optimum pH of reaction in the cycling reaction [1]: ~10.5 pH
7 | O[C@H]1[C@H](O)[C@@H](O)[C@H](O)[C@@H](O)[C@H]1O [myoinositol] |  |  |  | 9% | 33% | 0% | 
8 | mannose |  |  |  | 0% | 10% | 0% | 
9 | O[C@H]1[C@@H](O)[C@@H](O)[C@@H](O)[C@@H](O)[C@@H]1O [epi-inositol] |  |  |  | 0% | 0% | 4% | 
10 | NC(=S)c1ccc[n+]([C@@H]2O[C@H](COP(=O)([O-])OP(=O)(O)OC[C@H]3O[C@@H](n4cnc5c(N)ncnc54)[C@H](OP(=O)(O)O)[C@@H]3O)[C@@H](O)[C@H]2O)c1 [thio-NADP] |  | 269% | 0% |  |  |  | 
11 | OC[C@@H](O)[C@@H](O)[C@H](O)[C@H](O)CO [mannitol] |  |  |  | 0% | 0% | 0% | 
12 | O[C@H]1[C@H](O)[C@@H](O)[C@H](O)[C@@H](O)[C@@H]1O [scylloinositol] |  |  |  | 0% | 0% | 0% | 
13 | NC(=O)c1ccc[n+]([C@@H]2O[C@H](COP(=O)([O-])OP(=O)(O)OC[C@H]3O[C@@H](n4cnc5c(N)ncnc54)[C@H](O)[C@@H]3O)[C@@H](O)[C@H]2O)c1 [NAD, nicotinamide adenine dinucleotide] | 11.0 pH | 190% | 100% |  |  |  | Initial rate of enzyme reaction [2, 11]: 13 Abs/min.; Km ([6]; coenzyme NAD): 0.5 ± 0.1 mM
14 | O=C(CO)[C@@H](O)[C@H](O)[C@H](O)CO [fructose] |  |  |  | 0% | 0% | 0% | 
15 | NC(=O)c1ccc[n+]([C@@H]2O[C@H](COP(=O)([O-])OP(=O)(O)OC[C@H]3O[C@@H](n4cnc5c(=O)[nH]cnc54)[C@H](O)[C@@H]3O)[C@@H](O)[C@H]2O)c1 [deamino NAD, nicotinamide hypoxanthine dinucleotide] | 11.0 pH | 44% | 110% |  |  |  | Initial rate of enzyme reaction [2, 11]: 12 Abs/min.
16 | O[C@H]1[C@H](O)[C@H](O)[C@@H](O)[C@H](O)[C@H]1O [D-chiroinositol] |  |  |  | 100% | 100% | 100% | Km ([6]; NAD replaced by thio-NAD): 12.8 ± 0.5 mM; Km ([6]; coenzyme NAD): 5.2 ± 0.5 mM; Km [9]: 30.6 ± 1 mM; Km [10]: 27.6 ± 1 mM

Reference: patent US6046018A, “Highly sensitive method for assaying chiro-inositol and compositions for the assay” (priority 1997, dated 2000)
